Test results published in patent US11185588B2, “Pharmaceutical dosage forms comprising valganciclovir hydrochloride” (Hoffmann-La Roche Inc., priority 2006, dated 2021).

Columns and labels:
[1] = physchem; format: physicochemical
Method: (§1) The solubility of valganciclovir hydrochloride (active pharmaceutical ingredient, API) in aqueous solution is pH dependent. […] Valganciclovir hydrochloride is freely soluble under acidic conditions with a maximum solubility of greater than 200 mg/mL in the pH range of 4-6. The stability of valganciclovir hydrochloride is greatest at a pH<3.8.

[2] = Hygroscopicity on exposure to relative humidity; format: physicochemical; conditions: exposed to 80% relative humidity
Source text: Valganciclovir hydrochloride is moderately hygroscopic, with only small changes in moisture observed when the valganciclovir hydrochloride is exposed to moderate relative humidity. A weight gain of up to approximately 3% occurs when the valganciclovir hydrochloride is exposed to 80% relative humidity (for a total moisture content of up to approximately 8%). It is reversibly hygroscopic and will either absorb or release moisture under ambient humidity conditions, depending on the water content of the valganciclovir hydrochloride and the relative humidity.

[3] = pKa; format: physicochemical
Method: as §1

[4] = format: physicochemical; conditions: pH 7
Method: as §1

[5] = pH dependence of stability in aqueous solution; format: physicochemical; conditions: monohydrochloride
Method: as §1
The following excipients were used to prepare the formulations of Type I. Citric acid anhydrous was combined with sodium citrate to form the buffer system to ensure an acidic pH. […] Sodium benzoate was used as a preservative agent and sodium saccharin was used as an artificial sweetening agent. Maltose, a crystalline disaccharide carbohydrate, was used as a bulking agent (diluent) and to provide desirable mouth feel and sweetness. Strawberry flavor was used as the flavor of the oral solution.

- solubility ([1]; 25 °C, pH 7, water): 70 mg/mL
- solubility ([1]; aqueous buffer): > 200 mg/mL
- solubility in water ([1]; pH 7): 70 mg/mL
- total moisture content [2]: ≤ 8%
- weight gain [2]: ≤ 3%
- pKa [3]: 7.6
- n-octanol/water partition coefficient [4]: 0.0095
- pH at which stability is greatest ([5]; listed as valganciclovir): ≤ 3.8
- pH at which stability is greatest [5]: < 3.8
SMILES: CC(C)[C@H](N)C(=O)OCC(CO)OCn1cnc2c(=O)[nH]c(N)nc21.Cl (stereo partly drawn) [valganciclovir hydrochloride, L-Valine, 2-[(2-amino-1,6-dihydro-6-oxo-9H-purin-9-yl)methoxy]-3-hydroxypropyl ester, monohydrochloride]
